We go through four molecules from ChEMBL document CHEMBL3046395, “Synthesis and pharmacological investigation of novel 3-(benzyl)-2-substituted amino-3H-quinazolin-4-ones as analgesic and anti-inflammatory agents” (Med Chem Res, 2008).

In series [1] the test system is Rattus norvegicus. Kind of series: Anti-inflammatory activity in Rattus norvegicus (rat) assessed as inhibition of carrageenan-induced paw edema at 20 mg/kg, po measured at 30 min post carrageenan-challenge (reference value: 5.1 +/- 0.29%). Type of series: functional. Conditions: 0.5 h. (In general: Carrageenan injected into the paw causes an acute inflammation.)

Series [2] has as its system Rattus norvegicus. Briefly: Anti-inflammatory activity in Rattus norvegicus (rat) assessed as inhibition of carrageenan-induced paw edema at 10 mg/kg, po measured at 30 min post carrageenan-challenge (reference value: 5.1 +/- 0.29%). Type of series: functional. The note with it: 0.5 h.
The test system of series [3] is Mus musculus. Kind of series: Analgesic activity in Mus musculus Wistar albino (mouse) at 20 mg/kg, po after 3 hr by tail-flick test (reference value: 4 +/- 0.91%). Type of series: functional.
Series [4] deals with Mus musculus. Briefly: Analgesic activity in Mus musculus Wistar albino (mouse) at 10 mg/kg, po after 3 hr by tail-flick test (reference value: 4 +/- 0.91%). Format: functional. (In general: Thermal pain tests record how soon the animal reacts.)
The test system of series [5] is Mus musculus. Kind of series: Analgesic activity in Mus musculus Wistar albino (mouse) at 20 mg/kg, po after 2 hr by tail-flick test (reference value: 4 +/- 0.59%). Type of series: functional.
Series [6] relates to Mus musculus. Kind of series: Analgesic activity in Mus musculus Wistar albino (mouse) at 10 mg/kg, po after 2 hr by tail-flick test (reference value: 4 +/- 0.59%). Format: functional.
Series [7] relates to Mus musculus. Kind of series: Analgesic activity in Mus musculus Wistar albino (mouse) at 20 mg/kg, po after 1 hr by tail-flick test (reference value: 6 +/- 0.49%). Format: functional.
The test system of series [8] is Mus musculus. Briefly: Analgesic activity in Mus musculus Wistar albino (mouse) at 10 mg/kg, po after 1 hr by tail-flick test (reference value: 6 +/- 0.49%). Format: functional.
Series [9] concerns Mus musculus. Kind of series: Analgesic activity in Mus musculus Wistar albino (mouse) at 20 mg/kg, po after 30 min by tail-flick test (reference value: 2 +/- 0.35%). Type of series: functional.
The test system of series [10] is Mus musculus. Briefly: Analgesic activity in Mus musculus Wistar albino (mouse) at 10 mg/kg, po after 30 min by tail-flick test (reference value: 2 +/- 0.35%). Type of series: functional.
Series [11] concerns Rattus norvegicus. Briefly: Gastrointestinal toxicity in Rattus norvegicus Wistar albino (rat) assessed as ulcer index at 20 mg/kg, ip administered QD for 3 days measured on day 4 (reference value: 0.15 +/- 0.32). Format: organism-based. Details: dose 20 mg/kg, route intraperitoneal. Conditions: in vivo, 72 h.
The subject of series [12] is Rattus norvegicus. Briefly: Anti-inflammatory activity in Rattus norvegicus (rat) assessed as inhibition of carrageenan-induced paw edema at 20 mg/kg, po measured at 3 hr post carrageenan-challenge (reference value: 3.2 +/- 0.93%). Type of series: functional.
Series [13] concerns Rattus norvegicus. Briefly: Anti-inflammatory activity in Rattus norvegicus (rat) assessed as inhibition of carrageenan-induced paw edema at 10 mg/kg, po measured at 3 hr post carrageenan-challenge (reference value: 3.2 +/- 0.93%). Type of series: functional.
In series [14] the test system is Rattus norvegicus. Briefly: Anti-inflammatory activity in Rattus norvegicus (rat) assessed as inhibition of carrageenan-induced paw edema at 20 mg/kg, po measured at 2 hr post carrageenan-challenge (reference value: 5.7+/- 0.32%). Type of series: functional.
In series [15] the test system is Rattus norvegicus. Briefly: Anti-inflammatory activity in Rattus norvegicus (rat) assessed as inhibition of carrageenan-induced paw edema at 10 mg/kg, po measured at 2 hr post carrageenan-challenge (reference value: 5.7+/- 0.32%). Format: functional.
The subject of series [16] is Rattus norvegicus. Kind of series: Anti-inflammatory activity in Rattus norvegicus (rat) assessed as inhibition of carrageenan-induced paw edema at 20 mg/kg, po measured at 1 hr post carrageenan-challenge (reference value: 6.1 +/- 0.27%). Type of series: functional.
In series [17] the test system is Rattus norvegicus. Briefly: Anti-inflammatory activity in Rattus norvegicus (rat) assessed as inhibition of carrageenan-induced paw edema at 10 mg/kg, po measured at 1 hr post carrageenan-challenge (reference value: 6.1 +/- 0.27%). Format: functional.

Structures are written as SMILES.

On to `O=C1Nc2ccccc2/C1=N\Nc1nc2ccccc2c(=O)n1Cc1ccccc1`, for which the inhibition in vivo (as a rule, the share of the control response that was lost under treatment) at 20 mg/kg in the series with Rattus norvegicus [1] stood at 40%; in the series on Rattus norvegicus [12], 32%; with Rattus norvegicus [14] it was 51%; with Rattus norvegicus [16], 45%. Also, the inhibition in vivo at 10 mg/kg with Rattus norvegicus [2] turned out to be 36%; in the series on Rattus norvegicus [13] it was 25%; with Rattus norvegicus [15], 42%; with Rattus norvegicus [17], 38%. Further, the Activity in the series on Mus musculus [3] was found to be 35%; in the series on Mus musculus [4], 30%; with Mus musculus [5] it was 61%; in the series on Mus musculus [6] it was 48%; in the series on Mus musculus [7], 57%; with Mus musculus [8], 46%. For the same molecule, the Activity in the series on Mus musculus [9] is 52%; in the series with Mus musculus [10], 45%. Moreover, the UI with Rattus norvegicus [11] came to 0.62.

Consider `Cc1ccc(/C=N/Nc2nc3ccccc3c(=O)n2Cc2ccccc2)cc1`, for which the inhibition in vivo at 20 mg/kg in the series on Rattus norvegicus [1] was 46%; with Rattus norvegicus [12], 38%; in the series on Rattus norvegicus [14], 53%; in the series on Rattus norvegicus [16], 49%. Also, the inhibition in vivo at 10 mg/kg in the series on Rattus norvegicus [2] turned out to be 38%; in the series with Rattus norvegicus [13], 29%; with Rattus norvegicus [15], 42%; in the series on Rattus norvegicus [17], 38%. Moreover, the Activity amounted to 40% in the series with Mus musculus [3]; 35% in the series on Mus musculus [4]; 61% in the series on Mus musculus [5]; 54% in the series with Mus musculus [6]; 59% in the series on Mus musculus [7]; 49% in the series on Mus musculus [8]. Besides, the Activity turned out to be 58% in the series on Mus musculus [9] and 47% in the series on Mus musculus [10]. In the series with Rattus norvegicus [11], the UI was found to be 0.65.

Regarding `O=C([O-])Cc1ccccc1Nc1c(Cl)cccc1Cl.[Na+]` [DICLOFENAC SODIUM], the inhibition in vivo at 20 mg/kg amounted to 45% in the series on Rattus norvegicus [1], 42% in the series on Rattus norvegicus [12], 60% in the series with Rattus norvegicus [14] and 52% in the series with Rattus norvegicus [16]. The inhibition in vivo at 10 mg/kg is 32% with Rattus norvegicus [2], 33% with Rattus norvegicus [13], 39% with Rattus norvegicus [15] and 38% in the series with Rattus norvegicus [17]. Also, the Activity with Mus musculus [3] came to 39%; in the series on Mus musculus [4] it was 33%; with Mus musculus [5], 62%; with Mus musculus [6] it was 45%; with Mus musculus [7] it was 55%; with Mus musculus [8], 43%. Also, the Activity in the series with Mus musculus [9] turned out to be 46%; with Mus musculus [10] it was 37%. The UI in the series on Rattus norvegicus [11] is 1.65.

In the case of `O=c1c2ccccc2nc(N/N=C/c2ccc(Cl)cc2)n1Cc1ccccc1`, the inhibition in vivo at 20 mg/kg was 40% in the series on Rattus norvegicus [1], 29% in the series on Rattus norvegicus [12], 49% in the series on Rattus norvegicus [14] and 44% in the series on Rattus norvegicus [16]. Also, the inhibition in vivo at 10 mg/kg was 34% in the series with Rattus norvegicus [2], 23% in the series with Rattus norvegicus [13], 36% with Rattus norvegicus [15] and 36% with Rattus norvegicus [17]. Further, the Activity in the series with Mus musculus [3] worked out at 36%; in the series with Mus musculus [4] it was 30%; in the series on Mus musculus [5], 54%; with Mus musculus [6] it was 47%; in the series on Mus musculus [7], 51%; in the series on Mus musculus [8] it was 36%. For the same molecule, the Activity in the series with Mus musculus [9] was 49%; in the series on Mus musculus [10], 38%. Moreover, the UI in the series on Rattus norvegicus [11] is 0.89.
